Source: ChEMBL document CHEMBL1201862, “PubChem BioAssay data set” (2004)
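Grown in 96-well plates, cells were treated for 48 hours with each compound at five concentrations. Insufficient inhibition: endpoint recorded as highest concentration tested. Here, GI50 denotes the concentration required for 50% inhibition of growth.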 Active and inactive are the calls of the source. Cut-off read from the data, not from the text of the source: active = GI50 up to about 1.1 µM and inactive = higher.

Assays:
Experiment in all cases: inhibition of tumour cell growth, NCI panel, 48 h
[1] = tested on: SF-268
[2] = tested on: HOP-62
[3] = tested on: U-251
[4] = tested on: SK-MEL-5
[5] = tested on: HCC 2998
[6] = tested on: DU-145
[7] = tested on: COLO 205
[8] = tested on: CCRF-CEM
[9] = tested on: NCI-H460
[10] = tested on: ACHN
[11] = tested on: MDA-MB-435
[12] = tested on: Malme-3M
[13] = tested on: UACC-62
[14] = tested on: SF-295
[15] = tested on: SK-MEL-28
[16] = tested on: OVCAR-3
[17] = tested on: NCI/ADR-RES
[18] = tested on: SK-OV-3
[19] = tested on: LOX IMVI
[20] = tested on: A549
[21] = tested on: MOLT-4
[22] = tested on: OVCAR-5
[23] = tested on: HCT-15
[24] = tested on: RXF 393
[25] = tested on: A498
[26] = tested on: UO-31
[27] = tested on: 786-0
[28] = tested on: CAKI-1
[29] = tested on: RPMI-8226
[30] = tested on: MCF7
[31] = tested on: SF-539
[32] = tested on: KM12
[33] = tested on: SR
[34] = tested on: NCI-H23
[35] = tested on: EKVX
[36] = tested on: IGROV-1
[37] = tested on: SK-MEL-2
[38] = tested on: SW-620
[39] = tested on: HOP-92
[40] = tested on: NCI-H522
[41] = tested on: MDA-N
[42] = tested on: HT-29
[43] = tested on: TK-10
[44] = tested on: NCI-H226
[45] = tested on: SNB-19
[46] = tested on: MDA-MB-231
[47] = tested on: Hs-578T
[48] = tested on: HCT-116
[49] = tested on: PC-3
[50] = tested on: SN12C
[51] = tested on: SNB-75
[52] = tested on: OVCAR-8
[53] = tested on: OVCAR-4
[54] = tested on: M14
[55] = tested on: HL-60
[56] = tested on: UACC-257
[57] = tested on: K562

COc1cc([C@@H]2c3cc4c(cc3C[C@H]3COC(=O)[C@@H]32)OCO4)cc2c1OCO2 [AUSTROBAILIGNAN 1]
GI50 [1]: < 0.01 µM (active) | GI50 [2]: < 0.01 µM (active) | GI50 [3]: < 0.01 µM (active) | GI50 [4]: < 0.01 µM (active) | GI50 [5]: < 0.01 µM (active) | GI50 [6]: < 0.01 µM (active) | GI50 [7]: 0.0108 µM (active) | GI50 [8]: 0.664 µM (active) | GI50 [9]: < 0.01 µM (active) | GI50 [10]: < 0.0121 µM (active) | GI50 [11]: < 0.01 µM (active) | GI50 [12]: < 0.01 µM (active) | GI50 [13]: < 0.01 µM (active) | GI50 [14]: < 0.01 µM (active) | GI50 [15]: < 0.01 µM (active) | GI50 [16]: < 0.01 µM (active) | GI50 [17]: < 0.01 µM (active) | GI50 [18]: < 0.01 µM (active) | GI50 [19]: < 0.01 µM (active) | GI50 [20]: < 0.01 µM (active) | GI50 [21]: < 0.01 µM (active) | GI50 [22]: < 0.01 µM (active) | GI50 [23]: < 0.01 µM | GI50 [24]: < 0.01 µM (active) | GI50 [25]: < 0.01 µM (active) | GI50 [26]: < 0.01 µM (active) | GI50 [27]: < 0.01 µM (active) | GI50 [28]: < 0.01 µM (active) | GI50 [29]: < 0.01 µM (active) | GI50 [30]: < 0.01 µM (active) | GI50 [31]: < 0.01 µM (active) | GI50 [32]: 0.132 µM (active) | GI50 [33]: < 0.01 µM (active) | GI50 [34]: < 0.01 µM (active) | GI50 [35]: < 0.01 µM (active) | GI50 [36]: < 0.01 µM (active) | GI50 [37]: < 0.01 µM (active) | GI50 [38]: < 0.01 µM (active) | GI50 [39]: < 0.01 µM (active) | GI50 [40]: < 0.01 µM (active) | GI50 [41]: < 0.01 µM (active) | GI50 [42]: < 0.01 µM (active) | GI50 [43]: 1.99 µM (inactive) | GI50 [44]: < 0.01 µM (active) | GI50 [45]: < 0.01 µM (active) | GI50 [46]: < 0.01 µM (active) | GI50 [47]: < 0.01 µM (active) | GI50 [48]: < 0.01 µM (active) | GI50 [49]: < 0.01 µM (active) | GI50 [50]: < 0.01 µM (active) | GI50 [51]: 0.0278 µM (active) | GI50 [52]: < 0.01 µM (active) | GI50 [53]: 11.4 µM (inactive) | GI50 [54]: < 0.01 µM (active)

COC(=O)CC(SCCO)SCCO
GI50 [1]: > 100 µM (inactive) | GI50 [2]: > 100 µM (inactive) | GI50 [4]: > 100 µM (inactive) | GI50 [5]: > 100 µM (inactive) | GI50 [6]: > 100 µM (inactive) | GI50 [7]: > 100 µM (inactive) | GI50 [8]: > 100 µM (inactive) | GI50 [9]: 70.3 µM (inactive) | GI50 [55]: > 100 µM (inactive) | GI50 [56]: > 100 µM (inactive) | GI50 [10]: > 100 µM (inactive) | GI50 [11]: > 100 µM (inactive) | GI50 [12]: > 100 µM (inactive) | GI50 [13]: > 100 µM (inactive) | GI50 [14]: > 100 µM (inactive) | GI50 [15]: > 100 µM (inactive) | GI50 [16]: > 100 µM (inactive) | GI50 [17]: > 100 µM (inactive) | GI50 [18]: > 100 µM (inactive) | GI50 [19]: > 100 µM (inactive) | GI50 [20]: > 100 µM (inactive) | GI50 [21]: > 100 µM (inactive) | GI50 [22]: > 100 µM (inactive) | GI50 [24]: > 100 µM (inactive) | GI50 [25]: > 100 µM (inactive) | GI50 [26]: > 100 µM (inactive) | GI50 [27]: > 100 µM (inactive) | GI50 [28]: > 100 µM (inactive) | GI50 [29]: > 100 µM (inactive) | GI50 [57]: > 100 µM (inactive) | GI50 [31]: > 100 µM (inactive) | GI50 [32]: > 100 µM (inactive) | GI50 [33]: > 100 µM (inactive) | GI50 [34]: > 100 µM (inactive) | GI50 [35]: > 100 µM (inactive) | GI50 [36]: > 100 µM (inactive) | GI50 [38]: > 100 µM (inactive) | GI50 [39]: > 100 µM (inactive) | GI50 [40]: > 100 µM (inactive) | GI50 [41]: > 100 µM (inactive) | GI50 [42]: > 100 µM (inactive) | GI50 [43]: > 100 µM (inactive) | GI50 [44]: > 100 µM (inactive) | GI50 [45]: > 100 µM (inactive) | GI50 [46]: > 100 µM (inactive) | GI50 [47]: > 100 µM (inactive) | GI50 [48]: > 100 µM (inactive) | GI50 [49]: > 100 µM (inactive) | GI50 [50]: > 100 µM (inactive) | GI50 [51]: 75.7 µM (inactive) | GI50 [52]: > 100 µM (inactive) | GI50 [53]: > 100 µM (inactive) | GI50 [54]: > 100 µM (inactive)
